Tests used:
Assay type in all cases: in vivo
[1] = system: Surinam grass (Brachiaria decumbens); experiment: Test B postemergence; settings: 13 to 15 days
Outline: (§1)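 Preemergence: seeds planted and treated with test chemicals in non-phytotoxic solvent with surfactant; postemergence on plants 2–18 cm (1- to 4-leaf stage). Kept in greenhouse 13–15 days, then visually rated against controls on a 0 (no effect) to 100 (complete control) scale.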

[2] = system: barnyardgrass (Echinochloa crus-galli); experiment: Test B postemergence; settings: 13 to 15 days
Outline: as §1

[3] = system: blackgrass (Alopecurus myosuroides); experiment: Test B postemergence; settings: 13 to 15 days
Outline: as §1

[4] = system: cocklebur (Xanthium strumarium); experiment: Test B postemergence; settings: 13 to 15 days
Outline: as §1

[5] = system: corn (Zea mays); experiment: Test B postemergence; settings: 13 to 15 days
Outline: as §1

[6] = system: crabgrass (Digitaria sanguinalis); experiment: Test B postemergence; settings: 13 to 15 days
Outline: as §1

[7] = system: giant foxtail (Setaria faberii); experiment: Test B postemergence; settings: 13 to 15 days
Outline: as §1

[8] = system: lambsquarters (Chenopodium album); experiment: Test B postemergence; settings: 13 to 15 days
Outline: as §1

[9] = system: morning glory (Ipomoea hederacea); experiment: Test B postemergence; settings: 13 to 15 days
Outline: as §1

[10] = system: pigweed (Amaranthus retroflexus); experiment: Test B postemergence; settings: 13 to 15 days
Outline: as §1

[11] = system: velvetleaf (Abutilon theophrasti); experiment: Test B postemergence; settings: 13 to 15 days
Outline: as §1

[12] = system: wheat (Triticum aestivum); experiment: Test B postemergence; settings: 13 to 15 days
Outline: as §1

[13] = system: wild oat (Avena fatua); experiment: Test B postemergence; settings: 13 to 15 days
Outline: as §1

[14] = system: Surinam grass (Brachiaria decumbens); experiment: Test B preemergence
Outline: as §1

[15] = system: barnyardgrass (Echinochloa crus-galli); experiment: Test B preemergence
Outline: as §1

[16] = system: cocklebur (Xanthium strumarium); experiment: Test B preemergence
Outline: as §1

[17] = system: corn (Zea mays); experiment: Test B preemergence
Outline: as §1

[18] = system: crabgrass (Digitaria sanguinalis); experiment: Test B preemergence
Outline: as §1

[19] = system: giant foxtail (Setaria faberii); experiment: Test B preemergence
Outline: as §1

[20] = system: lambsquarters (Chenopodium album); experiment: Test B preemergence
Outline: as §1

[21] = system: morning glory (Ipomoea hederacea); experiment: Test B preemergence
Outline: as §1

[22] = system: pigweed (Amaranthus retroflexus); experiment: Test B preemergence
Outline: as §1

[23] = system: rice (Oryza saliva); experiment: Test B preemergence
Outline: as §1

[24] = system: velvetleaf (Abutilon theophrasti); experiment: Test B preemergence
Outline: as §1

[25] = system: Nightshade; experiment: Test C preemergence; settings: Rate 250 g/ha, visual evaluation after 12 to 14 days
[26] = system: Sunflower; experiment: Test C preemergence; settings: Rate 125 g/ha, scale 0 to 100, 0 no effect, 100 complete control
[27] = Rate 125 g/ha, scale 0 (no effect) to 100 (complete control)
[28] = Rate 500 g/ha, scale 0 to 100, 0 is no effect, 100 is complete control
[29] = Preemergence, Rate 500 g/ha, scale 0 to 100, 0 no effect, 100 complete control
[30] = preemergence, Rate 125 g/ha, scale of 0 to 100 where 0 is no effect and 100 is complete control, 13 to 15 days
[31] = preemergence, Rate 125 g/ha, scale 0 to 100, 0 no effect, 100 complete control

CC(C)(C)c1ccn(C2CCN(c3cccc(OC(F)(F)F)c3)C2=O)n1 (centres unmarked) [Compound 49]
Plant response rating, Surinam grass [1, 27]: 0 | Plant response rating, Surinam grass [1, 28]: 90 | Plant response rating, Barnyardgrass [2, 27]: 0 | Plant response rating, Barnyardgrass [2, 28]: 80 | Plant response rating, Blackgrass [3, 27]: 0 | Plant response rating, Blackgrass [3, 28]: 60 | Plant response rating, Cocklebur [4, 27]: 0 | Plant response rating, Cocklebur [4, 28]: 30 | Plant response rating, Corn [5, 27]: 0 | Plant response rating, Corn [5, 28]: 0 | Plant response rating, Crabgrass [6, 27]: 0 | Plant response rating, Crabgrass [6, 28]: 40 | Plant response rating, Foxtail, Giant [7, 27]: 0 | Plant response rating, Foxtail, Giant [7, 28]: 0 | Plant response rating, Lambsquarters [8, 27]: 30 | Plant response rating, Lambsquarters [8, 28]: 50 | Plant response rating, Morningglory [9, 27]: 0 | Plant response rating, Morningglory [9, 28]: 30 | Plant response rating, Pigweed [10, 27]: 30 | Plant response rating, Pigweed [10, 28]: 30 | Plant response rating, Velvetleaf [11, 27]: 0 | Plant response rating, Velvetleaf [11, 28]: 40 | Plant response rating, Wheat [12, 27]: 0 | Plant response rating, Wheat [12, 28]: 0 | Plant response rating, Wild Oat [13, 27]: 0 | Plant response rating, Wild Oat [13, 28]: 30 | Plant response rating, Surinam grass [14, 29]: 0 | Plant response rating, Surinam grass [14, 30]: 0 | Plant response rating, Barnyardgrass [15, 29]: 100 | Plant response rating, Barnyardgrass [15, 30]: 100 | Plant response rating, Cocklebur [16, 29]: 0 | Plant response rating, Cocklebur [16, 30]: 0 | Plant response rating, Corn [17, 29]: 0 | Plant response rating, Corn [17, 30]: 0 | Plant response rating, Crabgrass [18, 29]: 0 | Plant response rating, Crabgrass [18, 30]: 0 | Plant response rating, Foxtail, Giant [19, 29]: 90 | Plant response rating, Foxtail, Giant [19, 30]: 0 | Plant response rating, Lambsquarters [20, 29]: 100 | Plant response rating, Lambsquarters [20, 30]: 100 | Plant response rating, Morningglory [21, 29]: 30 | Plant response rating, Morningglory [21, 30]: 0 | Plant response rating, Pigweed [22, 29]: 100 | Plant response rating, Pigweed [22, 30]: 100 | Plant response rating, Rice [23, 29]: 20 | Plant response rating, Rice [23, 30]: 0 | Plant response rating, Velvetleaf [24, 29]: 0 | Plant response rating, Velvetleaf [24, 30]: 0 | Plant response rating (0 to 100), Nightshade [25]: 50 | Plant response rating, Sunflower [26]: 20

CC(C)(C)c1ccn(C2CCN(c3cccc(Br)c3)C2=O)n1 (centres unmarked) [Compound 33]
Plant response rating, Surinam grass [1, 27]: 0 | Plant response rating, Surinam grass [1, 28]: 0 | Plant response rating, Barnyardgrass [2, 27]: 0 | Plant response rating, Barnyardgrass [2, 28]: 0 | Plant response rating, Blackgrass [3, 27]: 0 | Plant response rating, Blackgrass [3, 28]: 0 | Plant response rating, Cocklebur [4, 27]: 0 | Plant response rating, Cocklebur [4, 28]: 10 | Plant response rating, Corn [5, 27]: 0 | Plant response rating, Corn [5, 28]: 0 | Plant response rating, Crabgrass [6, 27]: 0 | Plant response rating, Crabgrass [6, 28]: 0 | Plant response rating, Foxtail, Giant [7, 27]: 0 | Plant response rating, Foxtail, Giant [7, 28]: 20 | Plant response rating, Lambsquarters [8, 27]: 70 | Plant response rating, Lambsquarters [8, 28]: 80 | Plant response rating, Morningglory [9, 27]: 0 | Plant response rating, Morningglory [9, 28]: 10 | Plant response rating, Pigweed [10, 27]: 70 | Plant response rating, Pigweed [10, 28]: 80 | Plant response rating, Velvetleaf [11, 27]: 0 | Plant response rating, Velvetleaf [11, 28]: 0 | Plant response rating, Wheat [12, 27]: 0 | Plant response rating, Wheat [12, 28]: 0 | Plant response rating, Wild Oat [13, 27]: 0 | Plant response rating, Wild Oat [13, 28]: 0 | Plant response rating, Surinam grass [14, 29]: 60 | Plant response rating, Surinam grass [14, 31]: 30 | Plant response rating, Barnyardgrass [15, 29]: 80 | Plant response rating, Barnyardgrass [15, 31]: 30 | Plant response rating, Cocklebur [16, 31]: 0 | Plant response rating, Corn [17, 29]: 0 | Plant response rating, Corn [17, 31]: 0 | Plant response rating, Crabgrass [18, 29]: 100 | Plant response rating, Crabgrass [18, 31]: 0 | Plant response rating, Foxtail, Giant [19, 29]: 80 | Plant response rating, Foxtail, Giant [19, 31]: 20 | Plant response rating, Lambsquarters [20, 29]: 100 | Plant response rating, Lambsquarters [20, 31]: 90 | Plant response rating, Morningglory [21, 29]: 0 | Plant response rating, Pigweed [22, 29]: 100 | Plant response rating, Rice [23, 29]: 0 | Plant response rating, Velvetleaf [24, 29]: 0 | Plant response rating (0 to 100), Nightshade [25]: 0 | Plant response rating, Sunflower [26]: 0

Reference: patent publication US7138361B2, “Herbicidal heterocycles” (E. I. du Pont de Nemours and Company, priority 2000, dated 2006)
